Assay results taken from patent US9974782B2, “Phosphodiesterase inhibitors and uses thereof” (THE TRUSTEES OF COLUMBIA UNIVERSITY IN THE CITY OF NEW YORK, priority 2008, dated 2018).

Tests used:
[1] = system: APP processing (APP, sAPPα, sAPPβ, CT83, CT99); test: Western blot of APP full length and fragments in brain; format: in vivo, mouse; design: concentration or dose not given beside the values
Excerpt: Aβ originates from APP through a proteolytic process catalyzed by secretases, producing different fragments with characteristic functions^A24. APP is first cleaved by α and β secretases that generate soluble extracellular fragments, named α-APPs and β-APPs, and three forms of carboxyterminal fragments (CTFs): C83 by α-secretase cleavage, C89 and C99 by β-secretase cleavage^A25, A26. CTFs are substrates of γ-secretase generating C-terminal peptides of 57-58 residues (APP intracellular domain, AID) and Aβ fragments from CTFβ^A27. To assess whether the decrease in Aβ levels was related to changes in APP processing [see FIG. 20], western blot analyses on mice brain cortex for full length APP and its fragments was performed.
APP levels were found unchanged also in 7-10 months old transgenic mice (FIGS. 7B-7C). They have been treated with daily injections of sildenafil for 3 weeks at age of 3 months. […] Moreover, a decrease in sAPPβ in transgenic mice treated with sildenafil was observed (FIGS. 7B, 7E) showing a down-regulation of BACE activity. […] Thus, without being bound by theory, the reduction in Aβ levels by sildenafil is due to an action of the inhibitor onto α- and β-secretase activity.
Mice brains were homogenized in buffer (20 mM tris base, 1 mM EDTA, 1 mM EGTA, 250 mM sucrose) containing protease inhibitors. Part of the homogenates was ultracentrifugated at 100,000 g for 1 h and the supernatants were used to analyze the sAPPα and the sAPPβ fragments. The protein concentration in each homogenate was quantified to analyze the equal amounts of protein from each sample. Samples were loaded into the wells of a 4-12% Bis-Tris precast gel, electrophoresed and transferred according to manufacturer's protocol. After Ponceau S staining, membranes were washed and incubated in 5% non-fat milk powder in PBS for 1 h at room temperature. Then, they were incubated overnight at 4° C. with the following primary antibodies, diluted in goat serum 5% in PBS: mouse 22C11 for APP full length detection (1:4000, Sigma); mouse sAPPα and Swedish sAPPβ (1:4000 and 1:1000, IBL), rabbit AbD for CTFs (1:250, Zymed), mouse Tubulin as control (1:20.000, Sigma). After overnight incubation, membranes were washed 3 times in PBS for 30 minutes and incubated with goat anti-mouse or goat-anti-rabbit antibody, diluted in 5% non-fat milk powder in PBS (1:4000 and 1:2000). After 30 minutes washing in PBS, radiographic detection was performed after exposure to ECL (Pierce).

[2] = system: APP/PS1 mice; test: Morris water maze and probe trial (reference memory); format: in vivo, mouse
Description: To investigate sildenafil effect on long-term memory, reference memory was tested with a Morris water maze task that is known to require hippocampal function^A20 and is impaired after 6 months of age in the APP/PS1 mice^A12. Vehicle-treated transgenic mice needed more time to find the hidden platform after six sessions compared to WT littermates (FIG. 3C). […] This task is performed after the sixth hidden-platform session. The platform is removed from the water and the animals are allowed to search for 60 seconds. A mouse, knowing that the platform was in a certain position, will trawl repeatedly over that position looking for it. […] The amount of time spent in each quadrant of the maze can be used to evaluate the spatial bias of an animal's search pattern. Vehicle-treated WT mice spent more time in the target quadrant (TQ), where the platform had been located during training than in other quadrants, than in the adjacent quadrant to the right (AR), in the adjacent quadrant to the left (AL), or in the opposite quadrant (OQ) (FIG. 3D). Also, sildenafil improved the performance of the APP/PS1 mice which searched more in the quadrant where the platform had been located during training than in other quadrants (FIG. 3D). […] Sildenafil-treated WT mice remembered where the platform was the previous days and spent about the same time as vehicle-treated WT littermates. […] Behavioral Studies-Reference Memory: The task studied with the Morris water maze has been previously described^12. Briefly, mice were trained in 2 daily sessions (4 hours apart), each consisting of 3 trials (1 minute each), for 3 days. Time required to reach the hidden platform was recorded. To test the retention of the spatial memory, 4 probe trials were performed after the training with the platform […]. The maze was divided into 4 quadrants. The percent of time spent in the quadrant that previously contained the platform was recorded and analyzed with a video tracking system ([…] Image).

[3] = 3-month-old APP/PS1 treated with sildenafil
[4] = APP/PS1 at 7-10 months, sildenafil for 3 weeks at 3 months
[5] = APP/PS1, 3 mg/Kg i.p. for 3 weeks at 3 months
[6] = APP/PS1 previously treated with sildenafil
[7] = WT previously treated with sildenafil
[8] = WT, 3 mg/Kg i.p. for 3 weeks at 3 months
[9] = treated at 3 months, tested at 6-8 months

For `CCCc1nn(C)c2c(=O)[nH]c(-c3cc(S(=O)(=O)N4CCN(C)CC4)ccc3OCC)nc12` [sildenafil, 5-[2-ethoxy-5-(4-methyl-1-piperazinylsulphonyl)phenyl]-1-methyl-3-n-propyl-1,6-dihydro-7H-pyrazolo[4,3-d]pyrimidin-7-one], the “APP full length, % of control” value [1, 3] was 125.75±4.44%, the “CT83, % of control” value [1, 3] was 74.5±6.73% and the “CT99, % of control” value [1, 3] was 95.25±5.66%. For the same molecule, the “sAPPα, % of control” value [1, 3] was 86.25±5.02%, the “sAPPβ, % of control” value [1, 3] was 43.25±3.90% and the “APP full length, % of control” value [1, 4] was 107.4±3.88%. For the same molecule, the “CT83, % of control” value [1, 4] was 82.75±6.78%, the “CT99, % of control” value [1, 4] was 87.2±7.63% and the “sAPPα, % of control” value [1, 4] was 153.65±11.95%. For the same molecule, the “sAPPβ, % of control” value [1, 4] was 25.6±2.83%, the “minimum time needed to improve performance with the MWM” value ([2]; 3 mg/kg) was 2 weeks and the “minimum time needed to improve performance with the probe trial” value ([2]; 3 mg/kg) was 2 weeks. The “Morris water maze, time to find the hidden platform after six sessions” value [2, 5] was 32.92 ± 3.50 s, the “time to platform as % of vehicle-treated WT mice” value [2, 5] was ~114% and the “probe test, % of time spent in target quadrant (TQ)” value [2, 6] was 32.25±0.58%. The “time in TQ as % of vehicle-treated WT littermates” value [2, 6] was ~97%, the “probe test, % of time spent in target quadrant (TQ)” value [2, 7] was 33.35±1.38% and the “time in TQ as % of vehicle-treated WT littermates” value [2, 7] was ~100%. The “Morris water maze, time to find the hidden platform” value [2, 8] was 25.64 ± 3.16 s, the “time to platform as % of vehicle-treated WT mice” value [2, 8] was ~89% and the “minimum concentration needed to improve performance with the MWM” value [2, 9] was 3 mg/kg. The “minimum concentration needed to improve performance with the probe trial” value [2, 9] was 3 mg/kg.
